Values after ≈ are worked out from the molar mass of the structure shown. Where two headings read alike, the source gives them in different places. Numbered stars: 1 amine (or outer) side, 2 acyl side, 3 side chain; on linkers, the order of the positions; unused ones are H or OH. Bridge positions count the residues as written; N and C are the ends. Side chains are listed from the residue outwards. Peptide text beside a SMILES is read from it. * marks the point of attachment. C20 diacid = O=C(O)CCCCCCCCCCCCCCCCCCC(=O)*; γGlu = O=C(O)[C@H](CCC(=O)[*:2])N[*:1]
Legend:
[1] = molecular target: T1, human amylin 3(a) receptor (human calcitonin receptor + RAMP-3) in BHK570 cells (Homo sapiens, UniProt O60896+P30988); assay: ASSAY (II)a functional assay, human amylin receptor (CRE luciferase); assay type: cell-based; conditions: for EC50: human amylin receptor functional potency, assay (II), read-out: hAmylin-R funct. EC50
T1 construct: expressed in transfected cells
How it was run: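 Functional agonism was measured by CRE-luciferase reporter luminescence in BHK cells bearing calcitonin receptor, or calcitonin receptor plus RAMP-3 as the amylin 3(a) receptor. Stimulation lasted 3 hours at 37° C.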

[2] = molecular target: T2, human amylin receptor (membranes from Amylin 3(a)/CRE-luc cells) (Homo sapiens, UniProt O60896+P30988); assay: ASSAY (V) binding to the human amylin receptor (SPA, 125I-rat amylin); conditions: for IC50: Table 4, read-out: hAmylin-R bind IC50;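 for all read-outs here: competition binding of cell membranes (35 ng/µL) mixed with SPA beads in 384-well plates at 40 µL total volume, read by scintillation counting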
T2 construct: expressed in transfected cells
T2 sequence (P30988 25-474): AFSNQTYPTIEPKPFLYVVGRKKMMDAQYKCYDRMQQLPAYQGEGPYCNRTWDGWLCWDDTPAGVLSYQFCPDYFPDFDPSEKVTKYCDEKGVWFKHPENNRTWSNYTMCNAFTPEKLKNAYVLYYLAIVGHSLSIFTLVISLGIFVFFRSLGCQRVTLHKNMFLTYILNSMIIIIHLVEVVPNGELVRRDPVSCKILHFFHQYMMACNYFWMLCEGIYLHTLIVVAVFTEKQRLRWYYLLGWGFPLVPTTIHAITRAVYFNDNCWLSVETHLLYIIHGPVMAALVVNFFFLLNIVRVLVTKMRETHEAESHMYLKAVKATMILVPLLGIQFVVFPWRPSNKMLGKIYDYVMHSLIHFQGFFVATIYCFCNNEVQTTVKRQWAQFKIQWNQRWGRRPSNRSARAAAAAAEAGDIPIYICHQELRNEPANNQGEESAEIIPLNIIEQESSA
T2 sequence (O60896 24-148 partner): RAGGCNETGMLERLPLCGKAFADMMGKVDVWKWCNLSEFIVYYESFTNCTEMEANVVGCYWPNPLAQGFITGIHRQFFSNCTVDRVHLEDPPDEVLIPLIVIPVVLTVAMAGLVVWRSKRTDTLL

[3] = ASSAY (IV) determination of solubility; assay type: physicochemical
How it was run: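 Solubility measured by UPLC of supernatant after centrifugation, following 18 h at room temperature. Peptide ([…] in water) was diluted 1:1 into 100 mM glycylglycine (pH 3.0, 4.0, 5.0) or bistrispropane (pH 6.0-8.0).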

[4] = molecular target: T3, rat amylin receptor (rat calcitonin receptor + rat RAMP 3) (Rattus norvegicus, UniProt P32214+Q9JJ73); assay: ASSAY (VI) binding to the rat amylin receptor; conditions: for IC50: binding to rat amylin receptor, read-out: rAmylin-R bind IC50
T3 construct: expressed in transfected cells; host or cells: BHK tk'ts 13 (transient, FuGENE 6), membranes
T3 sequence (P32214 25-479 isoform P32214-2 limits assumed): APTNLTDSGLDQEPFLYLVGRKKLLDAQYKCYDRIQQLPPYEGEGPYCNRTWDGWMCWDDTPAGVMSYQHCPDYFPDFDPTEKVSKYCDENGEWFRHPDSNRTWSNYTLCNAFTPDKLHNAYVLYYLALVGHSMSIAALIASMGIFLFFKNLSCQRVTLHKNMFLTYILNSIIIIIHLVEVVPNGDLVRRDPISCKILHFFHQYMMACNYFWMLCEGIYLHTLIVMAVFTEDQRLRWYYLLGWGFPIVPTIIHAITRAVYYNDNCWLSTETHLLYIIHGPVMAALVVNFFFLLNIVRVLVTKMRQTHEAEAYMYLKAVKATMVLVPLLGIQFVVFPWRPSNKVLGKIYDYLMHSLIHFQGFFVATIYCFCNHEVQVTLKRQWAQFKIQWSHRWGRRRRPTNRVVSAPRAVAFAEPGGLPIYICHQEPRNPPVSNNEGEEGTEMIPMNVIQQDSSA
T3 sequence (Q9JJ73 23-147 partner): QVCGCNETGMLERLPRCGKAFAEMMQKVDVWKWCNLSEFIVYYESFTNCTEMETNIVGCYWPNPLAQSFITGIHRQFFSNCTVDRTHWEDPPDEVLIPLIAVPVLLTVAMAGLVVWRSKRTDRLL
How it was run: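 The cell-membrane assay assessed binding at the rat amylin receptor. BHK tk′ts 13 cells were transfected transiently with rat calcitonin receptor, with FuGENE® 6 (Roche) as the transfection reagent, used per the manufacturer's recommendations. Approximately 48 hours after transfection the cells were harvested, and membranes were prepared for measuring binding.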

rat calcitonin receptor = molecular target: T4, rat calcitonin receptor (Rattus norvegicus, UniProt P32214); assay: ASSAY (VIII) binding to the rat calcitonin receptor; conditions: Table 7, read-out: rCTR bind IC50
T4 construct: expressed in transfected cells; host or cells: BHK tk'ts 13 (transient, FuGENE 6), membranes
T4 sequence (P32214 25-479 isoform P32214-2 limits assumed): T3 sequence (P32214 25-479 isoform P32214-2 limits assumed)
How it was run: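 BHK tk′ts 13 cells, transient rat calcitonin receptor transfection; DMEM + 10% FBS; harvest ~48 h post-transfection; membrane prep.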

[5] = hCTR funct. EC50 divided by hAmylin-R funct. EC50
[6] = hCTR funct. EC50 over hAmylin-R funct. EC50
[7] = human functional selectivity: hCTR funct. EC50 / hAmylin-R funct. EC50
[8] = Table 5, selectivity, hCTR bind IC50 / hAmylin-R bind IC50
[9] = Table 5a, selectivity, hCTR bind IC50 / hAmylin-R bind IC50
[10] = Table 5b, selectivity, hCTR bind IC50 / hAmylin-R bind IC50
[11] = Table 7, human binding selectivity, included for comparison
[12] = Table 7a (preferred compounds), human binding selectivity, included for comparison
[13] = ratio of human calcitonin receptor binding IC50 to human amylin receptor binding IC50
[14] = bistrispropane buffer, pH 6.5, read-out: Solubility pH 6.5 Concentration
[15] = bistrispropane buffer, pH 7.5, read-out: Solubility pH 7.5 Concentration
[16] = bistrispropane buffer, pH 6.0, read-out: Solubility pH 6.0 Concentration
[17] = bistrispropane buffer, pH 7.0, read-out: Solubility pH 7.0 Concentration
[18] = bistrispropane buffer, pH 8.0, read-out: Solubility pH 8.0 Concentration
[19] = glycylglycine buffer, pH 3.0, read-out: Solubility pH 3.0 Concentration
[20] = glycylglycine buffer, pH 4.0, read-out: Solubility pH 4.0 Concentration
[21] = glycylglycine buffer, pH 5.0, read-out: Solubility pH 5.0 Concentration
[22] = Table 7, rat binding selectivity, rCTR IC50 / rAmylin-R IC50
[23] = Table 7a (preferred compounds), rat binding selectivity, rCTR IC50 / rAmylin-R IC50
[24] = ratio of rCTR bind IC50 to rAmylin-R bind IC50
[25] = Table 5c, selectivity, hCTR bind IC50 / hAmylin-R bind IC50

Row | Ratio hCT/hAmylin funct. [1, 5] | Ratio hCT/hAmylin funct. [1, 6] | Ratio hCT/hAmylin funct. [1, 7] | Ratio hCT/hAmylin binding [2, 8] | Ratio hCT/hAmylin binding [2, 9] | Ratio hCT/hAmylin binding [2, 10] | Ratio hCT/hAmylin binding [2, 11] | Ratio hCT/hAmylin binding [2, 12] | Ratio hCT/hAmylin binding [2, 13] | solubility at 18 h [3, 14] [µM] | solubility at 18 h [3, 15] [µM] | solubility at 18 h [3, 16] [µM] | solubility at 18 h [3, 17] [µM] | solubility at 18 h [3, 18] [µM] | solubility at 18 h [3, 19] [µM] | solubility at 18 h [3, 20] [µM] | solubility at 18 h [3, 21] [µM] | IC50 ([4]; Table 7) [nM] | Ratio rCT/rAmylin binding [4, 22] | Ratio rCT/rAmylin binding [4, 23] | SMILES | also measured
1 | 3.9 | 3.9 | 3.9 | 16.7 | 16.7 | 16.7 | 16.7 | 16.7 | 16.7 | ≥ 200 | ≥ 200 | ≥ 200 | ≥ 200 | ≥ 200 | ≥ 200 | ≥ 200 | ≥ 200 | 0.3 | 62.0 | 62.0 | CC[C@H](C)[C@H](NC(=O)[C@H](C)NC(=O)CNC(=O)[C@H](Cc1ccccc1)NC(=O)[C@H](CC(N)=O)NC(=O)[C@@H]1CCCN1C(=O)[C@H](CO)NC(=O)[C@H](CO)NC(=O)[C@H](Cc1c[nH]cn1)NC(=O)[C@H](CCCNC(=N)N)NC(=O)[C@H](CC(C)C)NC(=O)[C@H](Cc1ccccc1)NC(=O)[C@H](CC(=O)O)NC(=O)[C@H](C)NC(=O)[C@H](CC(C)C)NC(=O)[C@H](CCCNC(=N)N)NC(=O)[C@H](CCC(N)=O)NC(=O)[C@@H](NC(=O)[C@H](C)NC(=O)[C@@H]1CSSC[C@H](NC(=O)[C@@H](N)CCCCNC(=O)CC[C@H](NC(=O)CCCCCCCCCCCCCCCCCCC(=O)O)C(=O)O)C(=O)N[C@@H](CC(N)=O)C(=O)N[C@@H]([C@@H](C)O)C(=O)N[C@@H](C)C(=O)N[C@@H]([C@@H](C)O)C(=O)N1)[C@@H](C)O)C(=O)N1CCC[C@H]1C(=O)N[C@@H](CO)C(=O)N[C@@H](CO)C(=O)N[C@H](C(=O)N[C@@H](CC(N)=O)C(=O)N[C@H](C(=O)NCC(=O)N1CCC[C@H]1C(=O)N[C@@H](CCC(=O)O)C(=O)N[C@H](C(=O)N[C@@H](Cc1ccc(O)cc1)C(N)=O)[C@@H](C)O)C(C)C)[C@@H](C)O [Example 123] (H-K([γGlu-C20 diacid])CNTATCATQRLADFLRHSSPNFGAIPSSTNVGPETY-NH2; disulfide 2-7; N-terminus assumed) | Ratio hCT/hAmylin funct. ([1]; hCTR funct. EC50 / hAmylin-R funct. EC50): 3.9; EC50 [1]: 0.288 nM; IC50 [2]: 0.196 nM; Ratio rCT/rAmylin binding [4, 24]: 62.0; IC50 (rat calcitonin receptor): 18.6 nM
2 | 38.8 | 38.8 | 38.8 | 23.5 | 23.5 | 23.5 | 23.5 | 23.5 | 23.5 | ≥ 200 | ≥ 200 | ≥ 200 | ≥ 200 | ≥ 200 | ≥ 200 | ≥ 200 | ≥ 200 | 2.52 | 280.1 | 280.1 | CC[C@H](C)[C@H](NC(=O)[C@H](C)NC(=O)CNC(=O)[C@H](Cc1ccccc1)NC(=O)[C@H](CC(N)=O)NC(=O)[C@@H]1CCCN1C(=O)[C@H](CO)NC(=O)[C@H](CO)NC(=O)[C@H](Cc1c[nH]cn1)NC(=O)[C@H](CCCNC(=N)N)NC(=O)[C@H](CC(C)C)NC(=O)[C@H](Cc1ccccc1)NC(=O)[C@H](CC(N)=O)NC(=O)[C@H](C)NC(=O)[C@H](CC(C)C)NC(=O)[C@H](CCCNC(=N)N)NC(=O)[C@H](CCC(N)=O)NC(=O)[C@@H](NC(=O)[C@H](C)NC(=O)[C@@H]1CSSC[C@H](NC(=O)[C@@H](N)CCCCNC(=O)CC[C@H](NC(=O)CCCCCCCCCCCCC(=O)O)C(=O)O)C(=O)N[C@@H](CC(N)=O)C(=O)N[C@@H]([C@@H](C)O)C(=O)N[C@@H](C)C(=O)N[C@@H]([C@@H](C)O)C(=O)N1)[C@@H](C)O)C(=O)N1CCC[C@H]1C(=O)N[C@@H](CO)C(=O)N[C@@H](CO)C(=O)N[C@H](C(=O)N[C@@H](CC(N)=O)C(=O)N[C@H](C(=O)NCC(=O)N[C@@H](Cc1c[nH]cn1)C(=O)N[C@@H](CC(N)=O)C(=O)N[C@H](C(=O)N[C@@H](Cc1ccc(O)cc1)C(N)=O)[C@@H](C)O)C(C)C)[C@@H](C)O [Example 112] | Ratio hCT/hAmylin binding [2, 25]: 23.5; Ratio rCT/rAmylin binding [4, 24]: 280.1; IC50 (rat calcitonin receptor): 707 nM
3 | 24.9 | 24.9 | 24.9 | 151.1 | 151.1 | 151.1 | 151.1 | 151.1 | 151.1 | ≥ 200 | 187 (≈ 829 µg/mL) | ≥ 200 | ≥ 200 | 102 (≈ 452 µg/mL) | ≥ 200 | ≥ 200 | ≥ 200 | 0.504 | 116.0 | 116.0 | CC[C@H](C)[C@H](NC(=O)[C@H](C)NC(=O)CNC(=O)[C@H](Cc1ccccc1)NC(=O)[C@H](CC(N)=O)NC(=O)[C@@H]1CCCN1C(=O)[C@H](CO)NC(=O)[C@H](CO)NC(=O)[C@H](Cc1c[nH]cn1)NC(=O)[C@H](CCCNC(=N)N)NC(=O)[C@H](CC(C)C)NC(=O)[C@H](Cc1ccccc1)NC(=O)[C@H](CC(=O)O)NC(=O)[C@H](C)NC(=O)[C@H](CC(C)C)NC(=O)[C@H](CCCNC(=N)N)NC(=O)[C@H](CCC(N)=O)NC(=O)[C@@H](NC(=O)[C@H](C)NC(=O)[C@@H]1CSSC[C@H](NC(=O)[C@@H](N)CCCCNC(=O)CC[C@H](NC(=O)CCCCCCCCCCCCCCCCCCC(=O)O)C(=O)O)C(=O)N[C@@H](CC(N)=O)C(=O)N[C@@H]([C@@H](C)O)C(=O)N[C@@H](C)C(=O)N[C@@H]([C@@H](C)O)C(=O)N1)[C@@H](C)O)C(=O)N1CCC[C@H]1C(=O)N[C@@H](CO)C(=O)N[C@@H](CO)C(=O)N[C@H](C(=O)N[C@@H](CC(N)=O)C(=O)N[C@H](C(=O)NCC(=O)N1CCC[C@H]1C(=O)N[C@@H](CCCNC(=N)N)C(=O)N[C@H](C(=O)N[C@@H](Cc1ccc(O)cc1)C(N)=O)[C@@H](C)O)C(C)C)[C@@H](C)O [Example 129] (H-K([γGlu-C20 diacid])CNTATCATQRLADFLRHSSPNFGAIPSSTNVGPRTY-NH2; disulfide 2-7 (inferred); N-terminus assumed) | EC50 [1]: 0.146 nM; IC50 [2]: 0.281 nM; Ratio hCT/hAmylin binding [2, 25]: 151.1; Ratio rCT/rAmylin binding [4, 24]: 116.0; IC50 (rat calcitonin receptor): 58.5 nM

From patent US9023789B2, “Amylin analogs and pharmaceutical compositions thereof” (Novo Nordisk A/S, priority 2012, dated 2015)
